Measurements taken from the NIST ThermoML archive (doi:10.1016/j.jct.2019.02.020).

Assay: mn = molality of the nth substance listed, in mol/kg
Settings: 100 kPa, Liquid; for viscosity: Falling or rolling sphere viscometry; for mass density: Vibrating tube method

O=S(=O)(O)O [sulfuric acid] + O
Settings	mass density [kg/m3]	viscosity [mPa·s]
283.15 K, m1 = 0.05	1003.29	1.322
283.15 K, m1 = 0.1	1006.64	1.326
283.15 K, m1 = 0.1498	1009.9	1.339
283.15 K, m1 = 0.1997	1013.13	1.352
283.15 K, m1 = 0.2501	1016.29	1.363
283.15 K, m1 = 0.2999	1019.54	1.375
283.15 K, m1 = 0.3312	–	1.386
283.15 K, m1 = 0.3996	1025.76	1.399
283.15 K, m1 = 0.5001	1031.92	1.415
283.15 K, m1 = 0.6672	–	1.48
283.15 K, m1 = 0.9962	–	1.502
283.15 K, m1 = 1.331	–	1.653
283.15 K, m1 = 1.669	–	1.733
283.15 K, m1 = 2	–	1.817
283.15 K, m1 = 2.327	–	1.914
283.15 K, m1 = 2.667	–	2.017
283.15 K, m1 = 2.994	–	2.154
283.15 K, m1 = 3.33	–	2.28
283.15 K, m1 = 3.667	–	2.331
288.15 K, m1 = 0.05	1002.61	1.151
288.15 K, m1 = 0.1	1005.89	1.156
288.15 K, m1 = 0.1498	1009.09	1.167
288.15 K, m1 = 0.1997	1012.25	1.179
288.15 K, m1 = 0.2501	1015.35	1.19
288.15 K, m1 = 0.2999	1018.53	1.2
288.15 K, m1 = 0.3312	–	1.212
288.15 K, m1 = 0.3996	1024.63	1.221
288.15 K, m1 = 0.5001	1030.68	1.236
288.15 K, m1 = 0.6672	–	1.294
288.15 K, m1 = 0.9962	–	1.321
288.15 K, m1 = 1.331	–	1.45
288.15 K, m1 = 1.669	–	1.519
288.15 K, m1 = 2	–	1.589
288.15 K, m1 = 2.327	–	1.672
288.15 K, m1 = 2.667	–	1.768
288.15 K, m1 = 2.994	–	1.882
288.15 K, m1 = 3.33	–	1.978
288.15 K, m1 = 3.667	–	2.036
293.15 K, m1 = 0.05	1001.64	1.014
293.15 K, m1 = 0.1	1004.86	1.019
293.15 K, m1 = 0.1498	1007.99	1.029
293.15 K, m1 = 0.1997	1011.1	1.04
293.15 K, m1 = 0.2501	1014.14	1.049
293.15 K, m1 = 0.2999	1017.27	1.058
293.15 K, m1 = 0.3312	1019.13	1.07
293.15 K, m1 = 0.3996	1023.27	1.077
293.15 K, m1 = 0.5001	1029.22	1.091
293.15 K, m1 = 0.6672	1039.1	1.144
293.15 K, m1 = 0.9962	1057.95	1.172
293.15 K, m1 = 1.331	1076.44	1.282
293.15 K, m1 = 1.669	1094.43	1.343
293.15 K, m1 = 2	1111.51	1.406
293.15 K, m1 = 2.327	1127.75	1.476
293.15 K, m1 = 2.667	1143.44	1.569
293.15 K, m1 = 2.994	1161.33	1.663
293.15 K, m1 = 3.33	1173.91	1.725
293.15 K, m1 = 3.667	1188.61	1.794
298.15 K, m1 = 0.05	1000.42	0.9019
298.15 K, m1 = 0.1	1003.57	0.9068
298.15 K, m1 = 0.1498	1006.66	0.916
298.15 K, m1 = 0.1997	1009.71	0.9259
298.15 K, m1 = 0.2501	1012.71	0.9338
298.15 K, m1 = 0.2999	1015.79	0.9443
298.15 K, m1 = 0.3312	–	0.9534
298.15 K, m1 = 0.3996	1021.7	0.9597
298.15 K, m1 = 0.5001	1027.57	0.9715
298.15 K, m1 = 0.6672	–	1.024
298.15 K, m1 = 0.9962	–	1.049
298.15 K, m1 = 1.331	–	1.144
298.15 K, m1 = 1.669	–	1.197
298.15 K, m1 = 2	–	1.252
298.15 K, m1 = 2.327	–	1.314
298.15 K, m1 = 2.667	–	1.391
298.15 K, m1 = 2.994	–	1.474
298.15 K, m1 = 3.33	–	1.534
298.15 K, m1 = 3.667	–	1.596
303.15 K, m1 = 0.05	998.96	0.8093
303.15 K, m1 = 0.1	1002.07	0.8127
303.15 K, m1 = 0.1498	1005.1	0.8218
303.15 K, m1 = 0.1997	1008.12	0.8307
303.15 K, m1 = 0.2501	1011.07	0.8376
303.15 K, m1 = 0.2999	1014.11	0.8489
303.15 K, m1 = 0.3312	1015.94	0.8561
303.15 K, m1 = 0.3996	1019.95	0.8615
303.15 K, m1 = 0.5001	1025.74	0.8719
303.15 K, m1 = 0.6672	1035.36	0.9256
303.15 K, m1 = 0.9962	1053.74	0.9448
303.15 K, m1 = 1.331	1071.78	1.026
303.15 K, m1 = 1.669	1089.37	1.073
303.15 K, m1 = 2	1106.08	1.123
303.15 K, m1 = 2.327	1122.01	1.179
303.15 K, m1 = 2.667	1138.64	1.244
303.15 K, m1 = 2.994	1155.01	1.319
303.15 K, m1 = 3.33	1167.41	1.374
303.15 K, m1 = 3.667	1181.92	1.429
308.15 K, m1 = 0.05	997.29	0.7303
308.15 K, m1 = 0.1	1000.35	0.7339
308.15 K, m1 = 0.1498	1003.35	0.7412
308.15 K, m1 = 0.1997	1006.33	0.7497
308.15 K, m1 = 0.2501	1009.25	0.7567
308.15 K, m1 = 0.2999	1012.25	0.7652
308.15 K, m1 = 0.3312	–	0.7753
308.15 K, m1 = 0.3996	1018.02	0.7799
308.15 K, m1 = 0.5001	1023.74	0.7884
308.15 K, m1 = 0.6672	–	0.8371
308.15 K, m1 = 0.9962	–	0.8554
308.15 K, m1 = 1.331	–	0.9337
308.15 K, m1 = 1.669	–	0.9775
308.15 K, m1 = 2	–	1.016
308.15 K, m1 = 2.327	–	1.059
308.15 K, m1 = 2.667	–	1.116
308.15 K, m1 = 2.994	–	1.188
308.15 K, m1 = 3.33	–	1.238
308.15 K, m1 = 3.667	–	1.29
313.15 K, m1 = 0.05	995.42	0.6585
313.15 K, m1 = 0.1	998.45	0.6663
313.15 K, m1 = 0.1498	1001.41	0.6726
313.15 K, m1 = 0.1997	1004.36	0.6808
313.15 K, m1 = 0.2501	1007.25	0.6869
313.15 K, m1 = 0.2999	1010.22	0.698
313.15 K, m1 = 0.3312	–	0.7043
313.15 K, m1 = 0.3996	1015.94	0.7078
313.15 K, m1 = 0.5001	1021.61	0.716
313.15 K, m1 = 0.6672	–	0.7631
313.15 K, m1 = 0.9962	–	0.7748
313.15 K, m1 = 1.331	–	0.8534
313.15 K, m1 = 1.669	–	0.8905
313.15 K, m1 = 2	–	0.9243
313.15 K, m1 = 2.327	–	0.9706
313.15 K, m1 = 2.667	–	1.019
313.15 K, m1 = 2.994	–	1.077
313.15 K, m1 = 3.33	–	1.125
313.15 K, m1 = 3.667	–	1.171
318.15 K, m1 = 0.05	993.38	0.6063
318.15 K, m1 = 0.1	996.37	0.6087
318.15 K, m1 = 0.1498	999.3	0.6141
318.15 K, m1 = 0.1997	1002.21	0.6219
318.15 K, m1 = 0.2501	1005.09	0.6274
318.15 K, m1 = 0.2999	1008.03	0.6362
318.15 K, m1 = 0.3312	–	0.6443
318.15 K, m1 = 0.3996	1013.7	0.6502
318.15 K, m1 = 0.5001	1019.32	0.6543
318.15 K, m1 = 0.6672	–	0.6978
318.15 K, m1 = 0.9962	–	0.7101
318.15 K, m1 = 1.331	–	0.7819
318.15 K, m1 = 1.669	–	0.8167
318.15 K, m1 = 2	–	0.8473
318.15 K, m1 = 2.327	–	0.8914
318.15 K, m1 = 2.667	–	0.9455
318.15 K, m1 = 2.994	–	0.9872
318.15 K, m1 = 3.33	–	1.027
318.15 K, m1 = 3.667	–	1.07
